# Results as given in article PMC7606612, “Identification of HMGA2 inhibitors by AlphaScreen-based ultra-high-throughput screening assays” (Scientific Reports, 2020).
# Columns and labels:
# HMGA2-DNA interactions [1] = target: T1, HMGA2-DNA interactions (Mus musculus, UniProt P52927); test: AlphaScreen primary uHTS assay of His-tagged HMGA2 binding to biotin-labeled DNA oligomer FL814; set-up: species or system mammalian; settings: for inhibition of HMGA2-FL814 interactions / inhibition at 5 µM: LOPAC1280 screen, final concentration of 5 µM; for inhibition of HMGA2-DNA interactions (in words): confirmed hits that do not bind to DNA; for IC50: positive controls, Fig. S1e
# T1 construct: made in house
# T1 sequence (P52927 2-108 limits assumed): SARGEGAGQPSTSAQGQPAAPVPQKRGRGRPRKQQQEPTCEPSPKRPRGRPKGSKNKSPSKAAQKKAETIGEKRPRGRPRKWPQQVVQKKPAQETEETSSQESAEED
# Description: To address these limitations, we established a new assay using AlphaScreen technology. The assay entails binding a biotin-labeled DNA oligomer FL814 and His-tagged HMGA2 to streptavidin-coated donor beads and nickel chelate (Ni-NTA) acceptor beads, respectively (Fig. 1). A series of DNA binding studies were performed to determine the optimal conditions for the AlphaScreen Primary Assay (Fig. S1a–d). […] These two inhibitors are readily available for purchase and served as positive controls for HMGA2-DNA interaction inhibition in the assay.
# Using a Labcyte Echo 555 acoustic dispenser 5 nL of DMSO were added to columns 1–4 and 45–48 of a white 1536 well plate, while 5 nL of 2 mM compounds in DMSO were added to columns 5–44. Using a Beckman BioRAPTR FRD bulk reagent dispenser 1 µL of assay buffer (30 mM Citrate, 300 mM NaCl, and 0.005% Tween 20) was added to columns 1 and 2. Next 1 µL of assay buffer containing 125 nM HMGA2 was added to columns 3–48 with a Beckman BioRAPTR FRD bulk reagent dispenser. Finally, 1 µL of assay buffer containing 25 nM FL814 was added to every well of the plate using a Beckman BioRAPTR FRD bulk reagent dispenser. The plate was then centrifuged at 200 × g for 1 min. After 30 min at room temperature, 2 µL of bead buffer (10 mM HEPES, 300 mM NaCl and 0.005% Tween 20) containing 20 µg/mL anti-6xHIS acceptor beads and 20 µg/mL streptavidin donor beads were dispensed into every well using a Beckman BioRAPTR FRD bulk reagent dispenser. The plates were then centrifuged at 200 × g for 1 min. After 1 h at room temperature the plates were read on a Perkin Elmer Envision multimode plate reader in AlphaScreen mode.
# HMGA2-DNA interactions [2] = target: T1, HMGA2-DNA interactions; test: Protein-DNA interaction ELISA (PDI-ELISA) assay; type: binding, mammalian; settings: for IC50: inhibition of HMGA2-DNA interactions, PDI-ELISA
# Text: The PDI-ELSA assays were described previously[33] and used to determine the inhibition IC50 against HMGA2-DNA interactions. The apparent inhibitory IC50 values were obtained using the following equation: y=min+(max-min/1+10^((x-logIC50)×Hillslope) , where x, y, max, and min represent the inhibitor’s concentration, the inhibition level, the maximum inhibition value, and the minimum inhibition value, respectively.
# HMGA2 = target: T2, HMGA2 (Mus musculus, UniProt P52927); test: Isothermal titration calorimetry (ITC), titration into HMGA2; type: binding, mammalian; settings: for HMGA2 Binding site: number of sites
# T2 construct: made in house
# T2 sequence (P52927 2-108 limits assumed): T1 sequence (P52927 2-108 limits assumed)
# Description: (§1) ITC experiments were conducted using a VP-ITC titration calorimeter (MicroCal, Inc., Northampton, MA) interfaced to a PC. Origin 7.0, supplied by the manufacturer was used for data acquisition. […] The heat liberated or absorbed is observed as a peak corresponding to the power required keeping the sample and reference cells at identical temperatures. The peak produced during the injection is converted to heat output by integration and corrected for cell volume and sample concentration. […] The net enthalpy for the titration reaction was determined by subtraction of the component heats of dilution.
# [3] = target: “AT-hook” peptide 3 (ATHP3) (Homo sapiens, UniProt P52926); test: Isothermal titration calorimetry (ITC), titration into ATHP3; type: binding; settings: for ATHP3 Ka (M^−1) / ATHP3 Binding site: first line; for ATHP3 Binding site: number of sites
# Description: as §1
# HMGA2-DNA interactions [4] = target: T1, HMGA2-DNA interactions; test: LANCE TR-FRET secondary assay of HMGA2 binding to FL814; set-up: species or system mammalian; concentration or dose not given beside the values; settings: cherry picked primary hits
# Description: In this study, we also developed a LANCE time-resolved fluorescence energy transfer (TR-FRET) assay as a secondary assay for our screening. The His-tagged HMGA2 and biotinylated oligomer FL814 were linked to Europium-labeled anti-6 × His antibody and APC-labeled streptavidin, respectively. A series of DNA binding studies were performed to determine the optimal conditions for the secondary Assay (Fig. S2). After these experiments, 12.5 nM of FL814 and 62.5 nM of HMGA2 were chosen for the assay, which is the same for the primary assay. The assay tolerated up to 0.25% DMSO without any significant change in signal (Fig. S2c). For a counterscreen assay to exclude those compounds that nonspecifically bind to the protein surface, an AlphaScreen assay of H4 peptide binding to bromodomain-containing protein 4 (BRD4) was adopted (Fig. S2e). Since we are looking for compounds with anti-metastasis or anti-obesity activities, compounds with high levels of cytotoxicity are undesirable. […] Furthermore, potential DNA-binding compounds, i.e., DNA intercalators, minor groove binders, and DNA alkylating agents, can be identified by analyzing their chemical structures and will be excluded as well.
# Using a Labcyte Echo 555 acoustic dispenser 5 nL of DMSO were added to columns 1–4 and 45–48 of a white 1536 well plate, while 5 nL of 2 mM compounds in DMSO were added to columns 5–44. Using a Beckman BioRAPTR FRD bulk reagent dispenser 1 µL of assay buffer (10 mM Tris, 300 mM NaCl and 0.005% Tween 20) was added to columns 1 and 2. Next, 1 µL of assay buffer containing 125 nM HMGA2 was added to columns 3–48 with a Beckman BioRAPTR FRD bulk reagent dispenser. Finally, 1 µL of assay buffer containing 25 nM FL814 was added to every well of the plate using a Beckman BioRAPTR FRD bulk reagent dispenser. The plate was then centrifuged at 200 × g for 1 min. After 30 min at room temperature 1 µL of assay buffer containing 250 nM LANCE Ultra ULight-anti-6xHIS and 1 µL of assay buffer containing 12 nM LANCE Eu-W1024 Streptavidin was dispensed into every well using a Beckman BioRAPTR FRD bulk reagent dispenser. The plates were then centrifuged at 200 × g for 1 min. After 1 h at room temperature the plates were read on a Perkin Elmer Envision multimode plate reader in TR-FRET mode (excitation @340 nm, first emission at @665 nm, second emission at 615 nm).
# [5] = test system: mouse pre-adipocyte 3T3-L1 cells; set-up: method as in PMID 25653160; settings: cited from earlier work
compound,measurement,setting,value
NC(Cc1cc(O)c(O)cc1O)C(=O)O (racemic) [6-hydroxy-DL-DOPA],inhibition of HMGA2-FL814 interactions,HMGA2-DNA interactions [1],≥ 50%
O=C1c2ccccc2C(=O)c2c(NCCc3ccc(O)cc3)ccc(NCCc3ccc(O)cc3)c21 [JFD00244],inhibition of HMGA2-FL814 interactions,HMGA2-DNA interactions [1],≥ 50%
O=C(Nc1cccc(C(=O)Nc2ccc(S(=O)(=O)O)c3cc(S(=O)(=O)O)cc(S(=O)(=O)O)c23)c1)Nc1cccc(C(=O)Nc2ccc(S(=O)(=O)O)c3cc(S(=O)(=O)O)cc(S(=O)(=O)O)c23)c1 [NF023],IC50,HMGA2-DNA interactions [2],10.6 ± 0.46 µM
same,HMGA2 Ka (M^−1),HMGA2; first type of binding sites,2.47 ± 4.53 × 10^6 M^−1
same,HMGA2 Binding site,HMGA2; first type,1.74
same,ATHP3 Ka (M^−1),[3],9.75 ± 3.47 × 10^6 M^−1
same,ATHP3 Binding site,[3],1
O=C(Nc1cc(C(=O)Nc2ccc(S(=O)(=O)O)cc2)cc(C(=O)Nc2ccc(S(=O)(=O)O)cc2)c1)Nc1cc(C(=O)Nc2ccc(S(=O)(=O)O)cc2)cc(C(=O)Nc2ccc(S(=O)(=O)O)cc2)c1 [NF110],IC50,HMGA2-DNA interactions [2],0.87 ± 0.039 µM
same,HMGA2 Ka (M^−1),HMGA2; first type of binding sites,2.04 ± 0.48 × 10^8 M^−1
same,HMGA2 Binding site,HMGA2; first type,2.06
same,HMGA2 Binding site,HMGA2; second type,1.77
same,HMGA2 Ka (M^−1),HMGA2; second type of binding sites,7.16 ± 0.67 × 10^5 M^−1
same,ATHP3 Ka (M^−1),[3],2.17 ± 0.17 × 10^7 M^−1
same,ATHP3 Binding site,[3],1.01
O=C(Nc1cc(C(=O)Nc2ccc(S(=O)(=O)O)cc2S(=O)(=O)O)cc(C(=O)Nc2ccc(S(=O)(=O)O)cc2S(=O)(=O)O)c1)Nc1cc(C(=O)Nc2ccc(S(=O)(=O)O)cc2S(=O)(=O)O)cc(C(=O)Nc2ccc(S(=O)(=O)O)cc2S(=O)(=O)O)c1 [NF449],IC50,HMGA2-DNA interactions [2],0.43 ± 0.18 µM
same,HMGA2 Ka (M^−1),HMGA2; first type of binding sites,5.53 ± 6.14 × 10^7 M^−1
same,HMGA2 Binding site,HMGA2; first type,0.89
same,HMGA2 Binding site,HMGA2; second type,1.63
same,HMGA2 Ka (M^−1),HMGA2; second type of binding sites,8.17 ± 1.33 × 10^5 M^−1
same,ATHP3 Ka (M^−1),[3],1.10 ± 7.35 × 10^11 M^−1
same,ATHP3 Binding site,[3],0.86
Nc1ccc(-c2nc3ccc(-c4nc5ccc(N)cc5[nH]4)cc3[nH]2)cc1 [Ro 90-7501],inhibition of HMGA2-FL814 interactions,HMGA2-DNA interactions [1],≥ 50%
same,inhibition of HMGA2-DNA interactions (in words),HMGA2-DNA interactions [1],strongly inhibit HMGA2-DNA interactions
same,inhibition of HMGA2-DNA interactions,HMGA2-DNA interactions [4],≥ 50%
COc1cccc2c1C(=O)c1c(O)c3c(c(O)c1C2=O)C[C@@](O)(C(C)=O)C[C@@H]3O[C@H]1C[C@H](NCc2ccc(CN[C@H]3C[C@H](O[C@H]4C[C@](O)(C(C)=O)Cc5c(O)c6c(c(O)c54)C(=O)c4c(OC)cccc4C6=O)O[C@@H](C)[C@H]3O)cc2)[C@H](O)[C@H](C)O1 [WP631],IC50,HMGA2-DNA interactions [1],0.048 µM
O=C(O)C1=CC(=C(c2ccc(O)c(C(=O)O)c2)c2ccc(O)c(C(=O)O)c2)C=CC1=O [aurintricarboxylic acid],inhibition at 5 µM,HMGA2-DNA interactions [1],≥ 50%
same,inhibition of HMGA2-DNA interactions (in words),HMGA2-DNA interactions [1],strongly inhibit HMGA2-DNA interactions
same,inhibition of HMGA2-DNA interactions,HMGA2-DNA interactions [4],≥ 50%
N.N.O=C([O-])C1(C(=O)[O-])CCC1.[Pt+2] [carboplatin],inhibition of HMGA2-FL814 interactions,HMGA2-DNA interactions [1],≥ 50%
same,inhibition of HMGA2-DNA interactions,HMGA2-DNA interactions [4],≥ 50%
N.N.[Cl][Pt][Cl] [cisplatin],inhibition of HMGA2-FL814 interactions,HMGA2-DNA interactions [1],≥ 50%
same,inhibition of HMGA2-DNA interactions,HMGA2-DNA interactions [4],≥ 50%
"CN(N=O)c1ccc(O)c(O)c1 [methyl-3,4-dephostatin]",inhibition of HMGA2-FL814 interactions,HMGA2-DNA interactions [1],≥ 50%
O=C1c2c(O)ccc(O)c2C(=O)c2c(NCCNCCO)ccc(NCCNCCO)c21 [mitoxantrone],inhibition at 5 µM,HMGA2-DNA interactions [1],≥ 50%
same,inhibition of HMGA2-DNA interactions,HMGA2-DNA interactions [4],≥ 50%
Cn1cc(NC(=O)c2cc(NC(=O)CN=C(N)N)cn2C)cc1C(=O)NCCC(=N)N [netropsin],IC50,HMGA2-DNA interactions [1],0.022 µM
same,differentiation of 3T3-L1 cells into adipocytes,[5],strongly inhibited
Nc1c(S(=O)(=O)O)cc(Nc2ccc(Nc3nc(Cl)nc(Nc4cccc(S(=O)(=O)O)c4)n3)c(S(=O)(=O)O)c2)c2c1C(=O)c1ccccc1C2=O [reactive blue-2],inhibition of HMGA2-FL814 interactions,HMGA2-DNA interactions [1],≥ 50%
O=S(=O)([O-])c1cccc2ccccc12.[Na+] [sodium 1-naphthalenesulfonate],inhibition of HMGA2-DNA interactions (in words),HMGA2-DNA interactions [2]; SAR of suramin analogues,all of these analogues except sodium 1-naphthalenesulfonate potently inhibit HMGA2-DNA interactions
same,binding to HMGA2 (in words),HMGA2,all these chemical compounds except sodium 1-naphthalenesulfonate strongly bind to both HMGA2 and ATHP3
same,binding to ATHP3 (in words),[3],all these chemical compounds except sodium 1-naphthalenesulfonate strongly bind to both HMGA2 and ATHP3
C=C1C[C@@]23CC[C@H]4[C@@](C)(CCC[C@@]4(C)C(=O)O)[C@@H]2CC[C@]1(O)C3 [steviol],inhibition at 5 µM,HMGA2-DNA interactions [1],≥ 50%
N#CC(C#N)=C(N)/C(C#N)=C/c1cc(O)c(O)c(O)c1 [tyrphostin 51],inhibition at 5 µM,HMGA2-DNA interactions [1],≥ 50%
NF546,IC50,HMGA2-DNA interactions [2],5.49 ± 2.81 µM
same,HMGA2 Ka (M^−1),HMGA2; first type of binding sites,1.48 ± 0.47 × 10^7 M^−1
same,HMGA2 Binding site,HMGA2; first type,1.83
same,HMGA2 Binding site,HMGA2; second type,1.98
same,HMGA2 Ka (M^−1),HMGA2; second type of binding sites,3.37 ± 8.81 × 10^5 M^−1
same,ATHP3 Ka (M^−1),[3],4.28 ± 0.47 × 10^6 M^−1
same,ATHP3 Binding site,[3],0.81
indirubin-3′-monoxime,inhibition of HMGA2-FL814 interactions,HMGA2-DNA interactions [1],≥ 50%
